Results published in article PMC9956223, “In Vitro Inhibitory Effects of Polyphenols from Flos sophorae immaturus on α-Glucosidase: Action Mechanism, Isothermal Titration Calorimetry and Molecular Docking Analysis” (Foods, 2023).
Entries after “also recorded” stand apart in the source; their conditions may differ. Marks after values point to notes of the source that are not given here.

Assays:
α-glucosidase (Yeast) [1] = assay: α-glucosidase inhibitory activity (PNPG substrate, absorbance at 405 nm); type: biochemical; conditions: α-glucosidase 0.2 U/mL, pH 6.8, 37 °C
Description: (§1) The α-glucosidase inhibitory activity of the FSI samples was measured using the method described by Xiao et al., with minor modifications. Each sample solution (0.2 mL) was mixed with 1 mL of α-glucosidase (0.2 U/mL) of pH = 6.8 phosphate buffer solution. After incubation at 37 °C for 15 min, 0.5 mL of 5 mmol/L PNPG in phosphate buffer solution was added. The reaction was terminated by the addition of 1 mL of 0.1 mol/L sodium Na2CO3 […] at 37 °C for 15 min. The absorbance was measured at 405 nm. The α-glucosidase inhibitory activity was calculated using the following Equation (1):(1) α-Glucosidase inhibitory activity(%)=(ΔAcontrol−ΔAsample/ΔAcontrol)×100

α-glucosidase (Yeast) [2] = assay: α-glucosidase inhibition type and kinetic analysis (Lineweaver–Burk); type: biochemical; conditions: for Ki: binding to α-glucosidase, Lineweaver–Burk; for type of inhibition: Lineweaver–Burk plots
Description: In 5 mL of the reaction system, different concentrations of PNPG (0.5 mL) were mixed with different concentrations of polyphenols (0.1 mL) in a warm bath at 37 °C for 5 min, α-glucosidase solution (1 mL) was added and the absorbance was recorded at 405 nm in real time. Lineweaver–Burk curve method using the inverse of the PNPG concentration 1/(s) as the horizontal coordinate and the inverse of the enzymatic reaction rate 1/v as the vertical coordinate, and the type of inhibition was determined from the characteristics of the graph.

α-glucosidase (Yeast) [3] = assay: Omission experiment (model, single polyphenol and recombinant solutions); type: biochemical; conditions: single polyphenol solution at its content in FSI extract (RU 3.40, QU 0.38, HY 0.34, QI 0.23, KA 0.23 mg/mL)
Description: as §1
Three different solutions were prepared based on different polyphenol fractions (RU (3.40 mg/mL), QU (0.38 mg/mL), HY (0.34 mg/mL), QI (0.23 mg/mL) and KA (0.23 mg/mL): (1) Model solution: a model solution based on the composition of FSI extract. (2) Single polyphenol solution: a component solution containing only a single polyphenol, prepared based on the polyphenol content in FSI extract. (3) Recombinant solution: a reconstituted solution consisting of the missing individual polyphenol. The α-glucosidase inhibitory activities of the model, single polyphenol and recombinant solutions were determined and the contribution of the missing polyphenols to α-glucosidase activity inhibition was calculated.

α-glucosidase (Yeast) [4] = assay: Fluorescence quenching (Stern–Volmer) and thermodynamic parameters; type: binding
Description: An equal volume of polyphenol solution (0.02 mg/mL) was added to 3 mL of α-glucosidase solution (0.05 mg/mL) in 9 separate additions of 10 μL each. The mixture was shaken and then placed in a warm bath at 37 °C for 15 min. The system was scanned for fluorescence at three temperatures (298 K, 303 K, 310 K) using an F-7000 fluorescence spectrometer (Hitachi, Tokyo, Japan) at an excitation wavelength of 280 nm and excitation and emission slits of 5 nm. The fluorescence was scanned in the range of 310–500 nm and the corresponding blank control fluorescence spectra were subtracted to calculate the fluorescence. The Stern–Volmer equation was used to calculate the fluorescence burst constants and determine the type of burst.
Therefore, the spontaneity and binding force of their interactions can be studied by calculating thermodynamic parameters. The values of the free energy change (ΔG), enthalpy change (ΔH) and entropy change (ΔS) can be calculated by Equations (5) and (6). (5) ΔG=[…]=ΔH−TΔS (6) lnKb2/Kb1=[…]ΔH×1/R where R = 8.314 J/(mol·K).

SMILES: O=C(O)c1ccc(O)c(O)c1 [Protocatechuic acid, protocatechuic acid]
- IC50 (α-glucosidase (Yeast) [1]): 369.00 ± 0.11 ^h mg/mL
- Ki (α-glucosidase (Yeast) [2]): 17.7 mM

SMILES: O=c1c(O)c(-c2ccc(O)c(O)c2)oc2cc(O)cc(O)c12 [Quercetin, quercetin]
- α-Glucosidase Inhibition Rate of Omitted Compounds (α-glucosidase (Yeast) [3]): 89.00 ± 0.25%
- type of inhibition (α-glucosidase (Yeast) [2]; listed as QU): mixed type of inhibition; also recorded: mixed inhibitors
- KSV (α-glucosidase (Yeast) [4]; 298 K): 107100 L/mol
- Kq (α-glucosidase (Yeast) [4]; 298 K): 1.071e+13 M⁻¹ s⁻¹
- KSV (α-glucosidase (Yeast) [4]; 303 K): 75200 L/mol
- Kq (α-glucosidase (Yeast) [4]; 303 K): 7.52e+12 M⁻¹ s⁻¹
- KSV (α-glucosidase (Yeast) [4]; 310 K): 55500 L/mol
- Kq (α-glucosidase (Yeast) [4]; 310 K): 5.55e+12 M⁻¹ s⁻¹

SMILES: O=c1c(O)c(-c2ccc(O)cc2)oc2cc(O)cc(O)c12 [Kaempferol, kaempferol]
- α-Glucosidase Inhibition Rate of Omitted Compounds (α-glucosidase (Yeast) [3]): 81.00 ± 0.12%
- type of inhibition (α-glucosidase (Yeast) [2]; listed as KA): mixed type of inhibition; also recorded: mixed inhibitors
- KSV (α-glucosidase (Yeast) [4]; 298 K): 222300 L/mol
- Kq (α-glucosidase (Yeast) [4]; 298 K): 2.223e+13 M⁻¹ s⁻¹
- KSV (α-glucosidase (Yeast) [4]; 303 K): 493300 L/mol
- Kq (α-glucosidase (Yeast) [4]; 303 K): 4.933e+13 M⁻¹ s⁻¹
- KSV (α-glucosidase (Yeast) [4]; 310 K): 424600 L/mol
- Kq (α-glucosidase (Yeast) [4]; 310 K): 4.246e+13 M⁻¹ s⁻¹

SMILES: O=c1c(O[C@@H]2O[C@H](CO)[C@H](O)[C@H](O)[C@H]2O)c(-c2ccc(O)c(O)c2)oc2cc(O)cc(O)c12 [Hyperoside, hyperoside]
- IC50 (α-glucosidase (Yeast) [1]): 12.77 ± 0.07 ^d mg/mL
- α-Glucosidase Inhibition Rate of Omitted Compounds (α-glucosidase (Yeast) [3]): 75.00 ± 0.32%
- type of inhibition (α-glucosidase (Yeast) [2]; listed as HY): mixed type of inhibition; also recorded: mixed inhibitors
- Ki (α-glucosidase (Yeast) [2]): 3.79 mM
- Ki (α-glucosidase (Yeast) [2]; listed as HY): 3.91 mM
- KSV (α-glucosidase (Yeast) [4]; 298 K): 124300 L/mol
- Kq (α-glucosidase (Yeast) [4]; 298 K): 1.243e+13 M⁻¹ s⁻¹
- KSV (α-glucosidase (Yeast) [4]; 303 K): 89600 L/mol
- Kq (α-glucosidase (Yeast) [4]; 303 K): 8.96e+12 M⁻¹ s⁻¹
- KSV (α-glucosidase (Yeast) [4]; 310 K): 111700 L/mol
- Kq (α-glucosidase (Yeast) [4]; 310 K): 1.117e+13 M⁻¹ s⁻¹

SMILES: C[C@@H]1O[C@@H](Oc2c(-c3ccc(O)c(O)c3)oc3cc(O)cc(O)c3c2=O)[C@H](O)[C@H](O)[C@H]1O [Quercitrin, quercitrin]
- IC50 (α-glucosidase (Yeast) [1]): 25.37 ± 0.13 ^e mg/mL
- α-Glucosidase Inhibition Rate of Omitted Compounds (α-glucosidase (Yeast) [3]): 77.00 ± 0.20%
- type of inhibition (α-glucosidase (Yeast) [2]; listed as QI): mixed type of inhibition; also recorded: mixed inhibitors
- Ki (α-glucosidase (Yeast) [2]): 5.31 mM
- KSV (α-glucosidase (Yeast) [4]; 298 K): 74500 L/mol
- Kq (α-glucosidase (Yeast) [4]; 298 K): 7.45e+12 M⁻¹ s⁻¹
- KSV (α-glucosidase (Yeast) [4]; 303 K): 78700 L/mol
- Kq (α-glucosidase (Yeast) [4]; 303 K): 7.87e+12 M⁻¹ s⁻¹
- KSV (α-glucosidase (Yeast) [4]; 310 K): 54500 L/mol
- Kq (α-glucosidase (Yeast) [4]; 310 K): 5.45e+12 M⁻¹ s⁻¹

SMILES: C[C@@H]1O[C@@H](OC[C@H]2O[C@@H](Oc3c(-c4ccc(O)c(O)c4)oc4cc(O)cc(O)c4c3=O)[C@H](O)[C@@H](O)[C@@H]2O)[C@H](O)[C@H](O)[C@H]1O [Rutin]
- α-Glucosidase Inhibition Rate of Omitted Compounds (α-glucosidase (Yeast) [3]): 69.00 ± 0.11%
- type of inhibition (α-glucosidase (Yeast) [2]; listed as RU): mixed type of inhibition; also recorded: mixed inhibitors
- KSV (α-glucosidase (Yeast) [4]; 298 K): 45000 L/mol
- Kq (α-glucosidase (Yeast) [4]; 298 K): 4.5e+12 M⁻¹ s⁻¹
- KSV (α-glucosidase (Yeast) [4]; 303 K): 93700 L/mol
- Kq (α-glucosidase (Yeast) [4]; 303 K): 9.37e+12 M⁻¹ s⁻¹
- KSV (α-glucosidase (Yeast) [4]; 310 K): 93400 L/mol
- Kq (α-glucosidase (Yeast) [4]; 310 K): 9.34e+12 M⁻¹ s⁻¹

SMILES: COc1cc(-c2oc3cc(O)cc(O)c3c(=O)c2O)ccc1O [Isorhamnetin, isorhamnetin]
- IC50 (α-glucosidase (Yeast) [1]): 255.00 ± 0.11 ^g mg/mL
- Ki (α-glucosidase (Yeast) [2]): 15.1 mM
